Values of other authors in patent US10933035B2, “Antimicrobial silicone-based wound dressings” (Covalon Technologies Inc., priority 2010, dated 2021).

Details: 20° C.

[H]/N=C(\N/C(=N/[H])NCCCCCCNC(=N)NC(=N)Nc1ccc(Cl)cc1)Nc1ccc(Cl)cc1 [Chlorhexidine]
Solubility in water: 0.008 % wt/vol
